The test system of assay [1] is rabbit serum obtained by immunizing a rabbit with the SARS-CoV strain Frankfurt 1. The class given is binding. On the set-up: Binding of a rabbit serum to linear peptides / Binding of a rabbit serum to looped peptides / Rabbit serum linear peptides / Rabbit serum looped peptides / Binding of a rabbit serum to linear peptides of protein N of SARS-CoV Urbani (Rabbit serum linear peptides) / Binding of a rabbit serum to looped/cyclic peptides of protein N of SARS-CoV Urbani (Rabbit serum looped peptides): unit not given here.

Assay [2] deals with control sera (pooled serum of ten healthy LUMC hospital workers; commercial negative donor pooled serum from the Dutch bloodbank). The class given is binding, human. Set-up: Binding of Control serum LUMC to linear peptides / Binding of Control serum Blood-bank to linear peptides / Binding of Control serum LUMC to looped peptides / Binding of Control Serum Blood-Bank to Looped peptides / Binding of Control serum LUMC to linear peptides of the protein M of SARS-CoV Urbani / Binding of Control serum Blood-bank to linear peptides of the protein M of SARS-CoV Urbani / Binding of Control serum LUMC to looped peptides of the protein M of SARS-CoV Urbani / Binding of Control Serum Blood-Bank to Looped peptides of the protein M of SARS-CoV Urbani: unit not given here.

In assay [3] the test system is antibodies in sera from SARS patients (sera 1a, 1b, 2, 6, 37, 62, London, SARS-yellow, SARS-green). The format is binding, human. Set-up: Binding of serum 6 to linear peptides of protein X1 of SARS-CoV Urbani / Binding of serum 37 to linear peptides of protein X1 of SARS-CoV Urbani / Binding of serum 6 to looped/cyclic peptide (PEPSCAN-ELISA) / Binding of serum 37 to looped/cyclic peptide (PEPSCAN-ELISA) / Binding of serum 37 to looped/cyclic peptides of protein X1 of SARS-CoV Urbani / Binding of serum 6 to linear peptides of protein X2 / Binding of serum 37 to linear peptides of protein X2 / Binding of serum 37 to looped/cyclic peptides of protein X2 of SARS-CoV Urbani / Binding of serum 6 to linear peptides of protein M of SARS-CoV Urbani / Binding of serum 37 to linear peptides of protein M of SARS-CoV Urbani / Binding of serum 6 to looped/cyclic peptides of protein M of SARS-CoV Urbani / Binding of serum 37 to looped/cyclic peptides of protein M of SARS-CoV Urbani / Binding of serum 6 to linear peptides of protein X3 of SARS-CoV Urbani / Binding of serum 37 to linear peptides of protein X3 of SARS-CoV Urbani / Binding of serum 37 to looped/cyclic peptides of protein X3 of SARS-CoV Urbani / Binding of serum 6 to linear peptides of protein X4 of SARS-CoV Urbani / Binding of serum 37 to linear peptides of protein X4 of SARS-CoV Urbani / Binding of serum 37 to looped/cyclic peptides of protein X4 of SARS-CoV Urbani / Binding of serum 6 to linear peptides of protein X5 of SARS-CoV Urbani / Binding of serum 37 to linear peptides of protein X5 of SARS-CoV Urbani / Binding of serum 37 to looped/cyclic peptides of protein X5 of SARS-CoV Urbani / Binding of serum 6 to linear peptides of protein N of SARS-CoV Urbani / Binding of serum 37 to linear peptides of protein N of SARS-CoV Urbani / Binding of serum 6 to linear peptide (PEPSCAN-ELISA) / Binding of serum 1a to looped/cyclic peptides of protein N of SARS-CoV Urbani / Binding of serum 1b to looped/cyclic peptides of protein N of SARS-CoV Urbani / Binding of serum 2 to looped/cyclic peptides of protein N of SARS-CoV Urbani / Binding of serum 6 to looped/cyclic peptides of protein N of SARS-CoV Urbani / Binding of serum 37 to looped/cyclic peptides of protein N of SARS-CoV Urbani / Binding of serum 62 to looped/cyclic peptides of protein N of SARS-CoV Urbani / Binding of serum London to looped/cyclic peptides of protein N of SARS-CoV Urbani / Binding of serum SARS-green to looped/cyclic peptides of protein N of SARS-CoV Urbani: unit not given here.

On to TRHTYQLRARSVSPK, for which the “Recognition of the peptide by the rabbit serum” value in assay [1] is “recognized”. Besides, in assay [2], the “Binding of Control Serum Blood-Bank to Looped peptides” value is 0.7, the “Binding of Control serum Blood-bank to linear peptides” value is reported as 0.9, the “Binding of Control serum LUMC to linear peptides” value was determined as 0.9 and the “Binding of Control serum LUMC to looped peptides” value came out at 0.7. In assay [3], the “Binding of serum 1a to linear peptides of protein X4 of SARS-CoV Urbani” value was 0.8, the “Binding of serum 1a to looped/cyclic peptides of protein X4 of SARS-CoV Urbani” value was determined as 0.8, the “Binding of serum 1b to linear peptides of protein X4 of SARS-CoV Urbani” value is on record as 0.7 and the “Binding of serum 1b to looped/cyclic peptides of protein X4 of SARS-CoV Urbani” value is reported as 0.4. Also, in assay [3], the “Binding of serum 2 to linear peptides of protein X4 of SARS-CoV Urbani” value is 0.7, the “Binding of serum 2 to looped/cyclic peptides of protein X4 of SARS-CoV Urbani” value stood at 0.8, the “Binding of serum 6 to linear peptides of protein X4 of SARS-CoV Urbani” value amounted to 1.3 and the “Binding of serum 6 to looped/cyclic peptides of protein X4 of SARS-CoV Urbani” value is 0.9. In assay [3], the “Binding of serum 37 to linear peptides of protein X4 of SARS-CoV Urbani” value was determined as 1.0, the “Binding of serum 37 to looped/cyclic peptides of protein X4 of SARS-CoV Urbani” value is 0.7, the “Binding of serum 62 to linear peptides of protein X4 of SARS-CoV Urbani” value came out at 0.9 and the “Binding of serum 62 to looped/cyclic peptides of protein X4 of SARS-CoV Urbani” value came to 0.6. Also, in assay [3], the “Binding of serum London to linear peptides of protein X4 of SARS-CoV Urbani” value amounted to 0.8, the “Binding of serum London to looped/cyclic peptides of protein X4 of SARS-CoV Urbani” value was determined as 0.4, the “Binding of serum SARS-green to linear peptides of protein X4 of SARS-CoV Urbani” value was determined as 0.6 and the “Binding of serum SARS-green to looped/cyclic peptides of protein X4 of SARS-CoV Urbani” value is reported as 0.7. For the same sequence, in assay [3], the “Binding of serum SARS-yellow to linear peptides of protein X4 of SARS-CoV Urbani” value amounted to 0.9 and the “Binding of serum SARS-yellow to looped/cyclic peptides of protein X4 of SARS-CoV Urbani” value is 0.7.
Turning to TRSMWSFNPETNILL, in assay [1], the “Rabbit serum linear peptides” value stood at 0.1 and the “Rabbit serum looped peptides” value was 0.3. Besides, in assay [2], the “Binding of Control Serum Blood-Bank to Looped peptides of the protein M of SARS-CoV Urbani” value is listed as 0.9, the “Binding of Control serum Blood-bank to linear peptides of the protein M of SARS-CoV Urbani” value is on record as 0.7, the “Binding of Control serum LUMC to linear peptides of the protein M of SARS-CoV Urbani” value is 0.8 and the “Binding of Control serum LUMC to looped peptides of the protein M of SARS-CoV Urbani” value stood at 0.9. Also, in assay [3], the “Binding of serum 1a to linear peptides of protein M of SARS-CoV Urbani” value is on record as 0.8, the “Binding of serum 1a to looped/cyclic peptides of protein M of SARS-CoV Urbani” value is on record as 1.0, the “Binding of serum 1b to linear peptides of protein M of SARS-CoV Urbani” value is given as 0.7 and the “Binding of serum 1b to looped/cyclic peptides of protein M of SARS-CoV Urbani” value is reported as 0.4. Moreover, in assay [3], the “Binding of serum 2 to linear peptides of protein M of SARS-CoV Urbani” value worked out at 0.5, the “Binding of serum 2 to looped/cyclic peptides of protein M of SARS-CoV Urbani” value is 0.8, the “Binding of serum 6 to linear peptides of protein M of SARS-CoV Urbani” value is recorded as 0.5 and the “Binding of serum 6 to looped/cyclic peptides of protein M of SARS-CoV Urbani” value is 0.9. In assay [3], the “Binding of serum 37 to linear peptides of protein M of SARS-CoV Urbani” value was 0.5, the “Binding of serum 37 to looped/cyclic peptides of protein M of SARS-CoV Urbani” value came out at 1.1, the “Binding of serum 62 to linear peptides of protein M of SARS-CoV Urbani” value is on record as 0.4 and the “Binding of serum 62 to looped/cyclic peptides of protein M of SARS-CoV Urbani” value worked out at 1.1. In assay [3], the “Binding of serum London to linear peptides of protein M of SARS-CoV Urbani” value came to 0.3, the “Binding of serum London to looped/cyclic peptides of protein M of SARS-CoV Urbani” value was determined as 0.3, the “Binding of serum SARS-green to linear peptides of protein M of SARS-CoV Urbani” value was found to be 0.5 and the “Binding of serum SARS-green to looped/cyclic peptides of protein M of SARS-CoV Urbani” value is 0.5. In assay [3], the “Binding of serum SARS-yellow to linear peptides of protein M of SARS-CoV Urbani” value was 0.3 and the “Binding of serum SARS-yellow to looped/cyclic peptides of protein M of SARS-CoV Urbani” value was found to be 0.7.
As to TSCELYHYQECVRGT, in assay [1], the “Rabbit serum linear peptides” value was 0.4 and the “Rabbit serum looped peptides” value came out at 0.2. Also, in assay [2], the “Binding of Control Serum Blood-Bank to Looped peptides” value amounted to 0.8, the “Binding of Control serum Blood-bank to linear peptides” value was found to be 0.6, the “Binding of Control serum LUMC to linear peptides” value was 0.6 and the “Binding of Control serum LUMC to looped peptides” value is 0.8. Besides, in assay [3], the “Binding of serum 1a to linear peptides of protein X4 of SARS-CoV Urbani” value was determined as 0.7, the “Binding of serum 1a to looped/cyclic peptides of protein X4 of SARS-CoV Urbani” value turned out to be 0.9, the “Binding of serum 1b to linear peptides of protein X4 of SARS-CoV Urbani” value is 0.6 and the “Binding of serum 1b to looped/cyclic peptides of protein X4 of SARS-CoV Urbani” value worked out at 0.9. In assay [3], the “Binding of serum 2 to linear peptides of protein X4 of SARS-CoV Urbani” value came out at 0.3, the “Binding of serum 2 to looped/cyclic peptides of protein X4 of SARS-CoV Urbani” value is on record as 0.7, the “Binding of serum 6 to linear peptides of protein X4 of SARS-CoV Urbani” value is 0.7 and the “Binding of serum 6 to looped/cyclic peptides of protein X4 of SARS-CoV Urbani” value came out at 0.9. Besides, in assay [3], the “Binding of serum 37 to linear peptides of protein X4 of SARS-CoV Urbani” value amounted to 0.7, the “Binding of serum 37 to looped/cyclic peptides of protein X4 of SARS-CoV Urbani” value worked out at 0.7, the “Binding of serum 62 to linear peptides of protein X4 of SARS-CoV Urbani” value came out at 0.8 and the “Binding of serum 62 to looped/cyclic peptides of protein X4 of SARS-CoV Urbani” value was 0.7. Moreover, in assay [3], the “Binding of serum London to linear peptides of protein X4 of SARS-CoV Urbani” value worked out at 0.7, the “Binding of serum London to looped/cyclic peptides of protein X4 of SARS-CoV Urbani” value came to 0.4, the “Binding of serum SARS-green to linear peptides of protein X4 of SARS-CoV Urbani” value came out at 0.5 and the “Binding of serum SARS-green to looped/cyclic peptides of protein X4 of SARS-CoV Urbani” value came to 0.7. In assay [3], the “Binding of serum SARS-yellow to linear peptides of protein X4 of SARS-CoV Urbani” value came out at 0.3 and the “Binding of serum SARS-yellow to looped/cyclic peptides of protein X4 of SARS-CoV Urbani” value was found to be 0.4.
As to TSLLKTHRMCKYTQS, in assay [1], the “Binding of a rabbit serum to linear peptides” value came out at 0.4 and the “Binding of a rabbit serum to looped peptides” value was 0.4. In addition, in assay [2], the “Binding of Control Serum Blood-Bank to Looped peptides” value was determined as 0.4, the “Binding of Control serum Blood-bank to linear peptides” value is recorded as 1.0, the “Binding of Control serum LUMC to linear peptides” value is given as 0.9 and the “Binding of Control serum LUMC to looped peptides” value was found to be 0.4. Besides, in assay [3], the “Binding of serum 1a to linear peptides of protein X2” value came out at 0.7, the “Binding of serum 1a to looped/cyclic peptides of protein X2 of SARS-CoV Urbani” value amounted to 0.4, the “Binding of serum 1b to linear peptides of protein X2” value was 0.7 and the “Binding of serum 1b to looped/cyclic peptides of protein X2 of SARS-CoV Urbani” value is reported as 0.3. In assay [3], the “Binding of serum 2 to linear peptides of protein X2” value stood at 0.6, the “Binding of serum 2 to looped/cyclic peptides of protein X2 of SARS-CoV Urbani” value is 0.2, the “Binding of serum 6 to linear peptides of protein X2” value was found to be 0.5 and the “Binding of serum 6 to looped/cyclic peptides of protein X2 of SARS-CoV Urbani” value amounted to 0.2. In assay [3], the “Binding of serum 37 to linear peptides of protein X2” value stood at 0.7, the “Binding of serum 37 to looped/cyclic peptides of protein X2 of SARS-CoV Urbani” value came out at 0.2, the “Binding of serum 62 to linear peptides of protein X2” value is listed as 0.7 and the “Binding of serum 62 to looped/cyclic peptides of protein X2 of SARS-CoV Urbani” value was 0.4. Also, in assay [3], the “Binding of serum London to linear peptides of protein X2” value is 0.5, the “Binding of serum London to looped/cyclic peptides of protein X2 of SARS-CoV Urbani” value worked out at 0.2, the “Binding of serum SARS-green to linear peptides of protein X2” value was 0.6 and the “Binding of serum SARS-green to looped/cyclic peptides of protein X2 of SARS-CoV Urbani” value came to 0.2. Also, in assay [3], the “Binding of serum SARS-yellow to linear peptides of protein X2” value worked out at 0.8 and the “Binding of serum SARS-yellow to looped/cyclic peptides of protein X2 of SARS-CoV Urbani” value is recorded as 0.3.

Values taken from patent publication US20070128217A1 (priority 2003, published 2007).
